From patent US20170260210A1, “METHOD FOR PREPARING MARMYCIN A AND ANALOGUES THEREOF, AND ALSO USES THEREOF” (Centre national de la recherche scientifique, priority 2014, published 2017)
“Also recorded” adds a separate entry of the source. Blank lines part the entries; values can stand above or below the compound they belong to.

Columns and labels:
[1] = system: HMLER CD24- cancerous stem cell line (HMLER CD44high/CD24low); test: Cell viability assay on HMLER CD24- cancerous stem cell line; type: cell-based, human
Protocol: (§1) Cell viability: cell viability was assessed using the following protocol:
(§2) Seeding 1000 cells/well in a 96-well plate. The cells were treated for 72 hours. After a treatment time of 72 hours the reagent CellTiter-Blue® Reagent (G8081, Promega) was added and the cells incubated for one hour before recording fluorescence intensities (Excitation, 560/20 nm; Emission, 590/10 nm) using a Perkin Elmer Wallac 1420 Victor2 Microplate Reader.
(§3) Cell culture: the following material was used: saline buffer <<Dulbecco's Phosphate-Buffered Saline>> (14190-094, 500 mL, Gibco), DMEM/F12 (31331-028, 500 mL, Gibco), DMEM high-glucose with UltraGlutamine (BE12-604F/U1, BioWhittaker, Lonza), McCoy's 5A medium (Modified) (26600-023, Gibco), RPMI 1640 with L-glutamine (BE12-702F/U1, BioWhittaker, Lonza), Foetal Bovine Serum—FBS, 10270-106, Gibco), Hydrocortisone (H0888, Sigma), Insulin (10516, Sigma or 19278, Sigma), BD Epidermal growth factor human recombinant (hEGF, 354052, BD Biosciences), PEN-STREP (DE17-602E, BioWhittaker, Lonza), puromycin dihydrochloride (A11138-02, 460 Life Technologies).
The human mammary epithelial cell line was infected with a retrovirus carrying hTERT, SV40 and the oncogenic allele HrasV12, called HMLER CD44high/CD24 low cells, not expressing E-cadherin and Vimentin (reference HMLER CD24low or HMLER CD44+/CD24−), courteously offered by A. Puisieux (INSERM).
(§4) The HMLER CD44^high/CD24^low cells (Cancer stem cells—CSCs), HMLER CD44^high/CD24^high (non-CSCs) were cultured in DMEM/F12 supplemented with 10% FBS, 10 μg/mL insulin, 0.5 μg/mL hydrocortisone, 10 ng/mL hEGF and 0.5 μg/mL of puromycin.

lysosomes of U2OS cells = test: Cell location by fluorescence (LysoTracker DND-22, GFP-Lamp1, DAPI) in U2OS cells; type: cell-based; settings: U2OS cells treated 24 hours with 10 μM
Protocol: U2OS cells cultured to less than 40% confluence were treated for 24 hours with 10 μM of compound unless otherwise indicated. The marker LysoTracker® Blue DND-22 (L7525, Molecular Probes@) was added 30 minutes before fixing. GFP-Lamp1 was transiently transfected following the manufacturer's instructions. To summarise, […] of CellLight® Lysosomes-GFP BacMam 2.0 (C10596, Life Technologies) were mixed with […] of U2OS culture medium and added to each well of a 24-well plate. After overnight incubation (16 hours), the cells were washed and treated with Marmycin A as indicated in Example 9. For analysis by immunofluorescence, the cells were fixed 12 minutes in 2% formaldehyde/PBS, permeabilised 10 min with 0.1% Triton X/PBS and […] for 1 h with 5% BSA, 0.2% Tween-20/PBS (blocking buffer). Cover glasses were incubated with anti-LAMP1, p62, antibodies, diluted to 1/100 in the blocking buffer overnight at 4° C. The cells were then washed 3 times with 0.2% Tween-20/PBS, and incubated as described above with anti-mouse Alexa 488-conjugated secondary antibody (A11029, Invitrogen) diluted to 1/500 in blocking buffer. The cover glasses were washed as described above and mounted with VectaShield® mounting medium for analysis by fluorescence with or without DAPI (Vector Laboratories Ltd). The images were obtained with a Leica microscope […] and analysed with ImageJ software. […]

[2] = system: HMLER ID2 cancerous cell line; test: Cell viability assay on HMLER ID2 cancerous cell line; type: cell-based, human; settings: HMLER ID2 cells
Protocol: as §1, §2, §3
The line referenced HMLER ID2 is a hTert, SV40, HRasV12 transformed line, isogenic but non-stem.
as §4

[3] = system: MDA-MB-231 cells (human breast cancer cells); test: Cell viability assay (CellTiter-Blue) on MDA-MB-231 cells; type: cell-based
Protocol: MDA-MB-231 cells (human breast cancer cells) purchased from ATCC were held in McCoy's 5A medium, supplemented with 10% foetal bovine serum (FBS)) and 1× Antibiotic-Antimycotic (all from Gibco®) at 37° C. with 5% CO2.
Cell viability was measured by seeding 2000 cells per well in a 96-well plate. N-Acetyl Cystein (NAC, A9165 Sigma) or Pan-caspase zVAD-FMK inhibitor (550377 from BD pharmingen) were pre-treated for 1 hour or 30 minutes respectively before treatment with the assayed compounds. The reagent <<CellTiter-Blue® Reagent>> (20 μl/well) was added after a treatment time of 24, 48 or 72 hours, and the cells were incubated for one hour before fluorescence detection (560(20)Ex/590(10)Em) on a Perkin Elmer Wallac 1420 Victor2 Microplate Reader.
The assayed compounds were doxorubicin, marmycin A, artesunate, artesumycin and a combination of marmycin A and artesunate (cf. FIG. 9).

[4] = system: HT1080 cells (fibrosarcoma line); test: Cell viability assay (CellTiter-Blue) on HT1080 cells; type: cell-based
Protocol: (§5) U2OS and A2780 cells purchased from ATCC were held in McCoy's 5A or RPMI 1640 medium respectively, supplemented with 10% foetal bovine serum (FBS)) and 1× Antibiotic-Antimycotic (all from Gibco®) at 37° C. with 5% CO2. Measurement of cell viability was carried out by seeding 2000 cells per well in a 96-well plate. N-Acetyl Cystein (NAC, A9165 Sigma) or Pan-caspase zVAD-FMK inhibitor (550377 by BD pharmingen) were pre-treated for 1 hour or 30 minutes respectively before treatment with Marmycin A. The reagent <<CellTiter-Blue®>> Reagent) (20 μl/well) was added after 24, 48, or 72 treatment hours, and the cells were incubated for one hour before fluorescence detection (560(20)Ex/590(10)Em) on a Perkin Elmer Wallac 1420 Victor2 Microplate Reader.
The same protocol was followed to evaluate cell viability of HT1080 cells in the presence of compound 33 of Example 6 (called Oxamethoxymarmycin), doxorubicin or etoposide.

[5] = system: DNA-damage response (phosphorylation of H2AX on ser139, phosphorylation of P53, induction of P21); test: Western Blot analysis of DNA-damage response; type: cell-based; settings: cells treated as in Example 10
Protocol: The cells treated as indicated in Example 10 were washed twice in PBS and lysed with Laemmli buffer 2×. The cell extracts were brought to the boil for five minutes at 100° C. and quantified with a Nanodrop 2000 device (Thermal Scientific). 100 μg of protein lysate were separated with 4-20% Mini-PROTEAN® TGX Stain-Free™ gel (BioRad) and transferred onto a nitrocellulose membrane (Amersham). Stains were detected with different antibodies such as anti-β-actin (ab8226, Abcam), anti-p62 (610833, BD Transduction Laboratories™), anti-H2AX (PA1-14198, Thermal Scientific), anti-gH2AX (Ser139) (#2577, Cell Signaling), anti-p21, anti-p53 (1C12) (#2524, Cell Signaling), anti-p-p53, anti-LC3B (#2775, Cell Signaling), anti-BID, diluted to 1/1000 in 5% BSA, 0.1% Tween-20/TBS.

[6] = system: A2780 cells (ovarian cancer line); test: Cell proliferation/viability assay (CellTiter-Blue) on A2780 cells; type: cell-based; settings: Homo sapiens, at 72 hours
Protocol: as §5

[7] = system: U2OS cells (osteosarcoma cancer line); test: Cell proliferation/viability assay (CellTiter-Blue) on U2OS cells; type: cell-based; settings: Homo sapiens, at 72 hours
Protocol: as §5

[8] = system: human breast, prostate, lung, colon, ovarian cancer lines and leukaemia; settings: cited from earlier work
[9] = Homo sapiens, HT-1080, at 72 hours

Compound: Cc1ccc2c3c(ccc2c1)C(=O)c1c(ccc2c1NC1(C)CC2O[C@@H](C)[C@@H]1OC(=O)CCC(=O)OC1O[C@@H]2O[C@@]4(C)CC[C@H]5[C@H](C)CC[C@@H]([C@H]1C)[C@@]25OO4)C3=O (stereo partly drawn) [artesumycin]
cytotoxic activity compared with artesunate ([1]; HMLER CD24- cells): higher than that of artesunate | cell viability ([1]; HMLER CD24- cells, concentration of 1 μm, 72 hours): about 18% | IC50 ([1]; Homo sapiens, HMLER CD24- cancerous stem cells, 72 hours): 100 nM | cell location (lysosomes of U2OS cells): accumulates in the lysosomes | cytotoxic activity compared with artesunate [2]: higher than that of artesunate | cell viability ([2]; concentration of 0.1 μm, 72 hours): about 44% | IC50 ([2]; Homo sapiens, 72 hours): 98 nM | cytotoxic activity compared with other treatments [3]: higher than that of marmycin A and also higher than that of marmycin A combined with artesunate; also recorded: synergic effect | IC50 ([3]; Homo sapiens, 72 h treatment): 900 nM | cell viability ([3]; concentration of 0.9 μm): less than 50%

Compound: COc1cccc2c1C(=O)c1c(O)c3c(c(O)c1C2=O)C[C@@](O)(C(=O)CO)C[C@@H]3O[C@H]1C[C@H](N)[C@H](O)[C@H](C)O1 [doxorubicin, reference compound]
DNA-damage response (Western Blot) [5]: generates a DNA-damage response | IC50 [6]: 60 nM | IC50 [4, 9]: 35 nM | IC50 [7]: 100 nM

Compound: Oxamethoxymarmycin
IC50 ([4]; at 72 hours): 75000 nM

More lines, main results first:

IC50 [4, 9]: 500 nM
Compound: COc1cc([C@@H]2c3cc4c(cc3[C@@H](O[C@@H]3O[C@@H]5CO[C@@H](C)O[C@H]5[C@H](O)[C@H]3O)[C@H]3COC(=O)[C@H]23)OCO4)cc(OC)c1O [etoposide]

IC50 [6]: 9800 nM | IC50 [7]: 10300 nM
Compound: Cc1ccc2c3c(ccc2c1)C(=O)c1c(ccc2c1NC1(C)CC2O[C@@H](C)[C@@H]1O)C3=O (stereo partly drawn) [marmycin A]
DNA-damage response (Western Blot) [5]: only scarcely damages caspase-dependent DNA | cytotoxic properties [8]: cytotoxic properties | cell location (lysosomes of U2OS cells): not located at the cell nucleus but at the site of the lysosomes; also recorded: accumulates in the lysosomes
